# Data as given in US10583102B2, “Targeting liver nuclear receptors as a treatment for wilson disease” (THE JOHNS HOPKINS UNIVERSITY, priority 2014, dated 2020).
# Entries after “also recorded” stand apart in the source; their conditions may differ.
# Experiments:
# Atp7b−/− mice [1] = assay: Quantitative RT-PCR of liver mRNA, inflammatory and fibrosis genes; type: in vivo
# Procedure: (§1) ATP7b knockout (ATP7b^−/−) and heterozygote (ATP7b^+/−) mice were generated as previously prescribed (Buiakova et al., 8(9) HUM. MOL. GENETICS 1665-71 (1999). T0901317 (Cayman Chemical, Ann Arbor, Mich.) powder was mixed with Teklad 2018 powdered chow (Harlan, Madison Wis.) and fed to animals aged 6-7 weeks old at a dose of 50 mg/kg/day, thrice weekly. After 8 weeks, animals were sacrificed. The animals were housed at the Johns Hopkins University School of Medicine (JHUSOM) Animal Care Facility and protocols designed according to National Institutes of Health (USA) guidelines. Normal pellet chow was fed to the mice on days they were not receiving the drug. Animals were weighed weekly. At the time of sacrifice, trunk blood and livers were harvested. The Institutional Animal Care and Use Committee (IACUC) of JHUSOM approved the above experimental protocols.
# (§2) Sections of mouse liver were immersed in RNAlater, homogenized, and frozen at −80° C. RNA was isolated with TRIzol via the manufacturer's instructions, then transcribed into cDNA using the SuperScript III first strand synthesis system (Invitrogen). RNA quantity was determined by an ND-1000 spectrophotometer (NanoDrop, Wilmington, Del.). Samples were run in triplicate and performed on a 7900 HT machine (Applied Biosystems) and analyzed with the SDS 2.4.1 software. GAPDH served as the control to which gene of interest expression was normalized.
# (§3) Quantitative RT-PCR for ABC1, HmGCoA1, CYP71a, FASN, LXRα (NR1H3), LXRβ (NR1H2), RXRα (NR2B2), SREBP1, FXR, TIMP1, COL1a, and GAPDHwas performed with sequence-specific primers and probes using TaqMan gene expression assays (Applied Biosystems, Foster City, Calif.).
# [2] = Animal and liver weights during/after T0901317 treatment in chow; type: in vivo, mice; conditions: for body weight: 50 mg/kg/day thrice weekly in chow, 8 weeks
# Procedure: as §1
# Atp7b−/− mice [3] = assay: Hepatic copper measurement by atomic absorption spectroscopy; type: in vivo; conditions: drug-treated Atp7b−/− mice, end of experiment
# Procedure: as §1, with “protocols. Hepatic copper levels were measured by polarized atomic absorption spectroscopy as previously described. Briefly, 50-100 mg of liver was dissolved in 2 ml of HNO3 at 90° C. Copper levels were determined using a Hitachi Z-8279 spectrophotometer. Samples were compared to freshly prepared standards.” for “protocols.”
# Atp7b−/− mice [4] = assay: Hepatic triglyceride colorimetric assay; type: in vivo
# Procedure: as §1, with “protocols. The triglyceride colorimetric assay kit (Cayman Chemical, Ann Arbor, Mich.) was used for measuring hepatic triglyceride content using the provided protocol. 120-160 mg of liver tissue was homogenized and samples were assayed in triplicate. Absorbance at 540 nm was detected on an Envision plate reader (Perkin-Elmer). Triglyceride concentrations were calculated using a standard curve, then normalized to the volume of homogenate and the mass of the liver tissue.” for “protocols.”
# Atp7b−/− mice [5] = assay: Hepatic oxysterol measurement by LC/MS; type: in vivo; conditions: Atp7b knockout mice, data not shown
# Procedure: as §1, with “protocols. Oxysterols were extracted and measured using the protocol described by McDonald et al. (53(7) J. LIPID RES. 1399-1409 (2012)). […] Quantitation was performed by establishing a linear relationship between measured amounts of the analytical standards combined with the internal standard cocktail. This regression line was applied to the measured peak areas for analytes in the extracted samples to determine measured quantities present in each sample. […]” for “protocols.”
# Atp7b−/− mice [6] = assay: Serum liver biochemistries (AST, ALT, bilirubin, albumin); type: in vivo; conditions: treated Atp7b−/− mice; p<0.05 vs untreated
# Procedure: as §1, with “protocols. Animals were fasted overnight before sacrifice. Whole blood was collected from the aorta and vena cava in amber Microtainer tubes (Becton Dickinson, Franklin Lakes, N.J.), and serum was separated after centrifugation at 5000 rpm for 10 minutes. Liver biochemistries and lipid panels were performed in the Molecular and Comparative Pathobiology Core Laboratory of JHUSOM.” for “protocols.”
# [7] = test system: LXR/RXR signaling pathway; assay: Quantitative RT-PCR of liver mRNA, genes under control of LXR/RXR signaling pathway; type: in vivo, mice; conditions: for SREBP1 mRNA / FASN mRNA expression: treated vs untreated
# Procedure: as §1, §2, §3
# Atp7b−/− mice [8] = assay: Liver histology (H&E, inflammation scoring); type: in vivo
# Procedure: as §1, with “protocols. Sections of mouse liver were covered in OCT and snap frozen in liquid nitrogen. Sections were then cut and stained with hematoxylin and eosin. De-identified samples were analyzed for the presence of inflammation by an expert in veterinary pathology (D.H.). Inflammation was scored as follows: none, 0; mild, 1; moderate, 2; and severe, 3. Severely inflamed livers had karyomegaly, cytomegaly, binucleate hepatocytes, intranuclear vacuoles, multiple nuclei, and inflammatory cell infiltrates.” for “protocols.”
# Atp7b−/− mice [9] = assay: Serum lipid panel; type: in vivo; conditions: drug treated Atp7b−/− mice vs untreated Atp7b−/−
# Procedure: as §1, with “protocols. Animals were fasted overnight before sacrifice. Whole blood was collected from the aorta and vena cava in amber Microtainer tubes (Becton Dickinson, Franklin Lakes, N.J.), and serum was separated after centrifugation at 5000 rpm for 10 minutes. Liver biochemistries and lipid panels were performed in the Molecular and Comparative Pathobiology Core Laboratory of JHUSOM.” for “protocols.”
# [10] = Atp7b−/− mice, treated vs untreated
structure (smiles),measurement,setting,value
"O=S(=O)(c1ccccc1)N(CC(F)(F)F)c1ccc(C(O)(C(F)(F)F)C(F)(F)F)cc1 [T0901317, N-(2,2,2-trifluoroethyl)-N-{4-[2,2,2-trifluoro-1-hydroxy-1-(trifluorometh-yl)ethyl]phenyl}benzene sulfonamide]",increase in expression of collagen (Col1a mRNA),Atp7b−/− mice [1]; Atp7b−/− mice,completely abolished
same,IL-1β expression,Atp7b−/− mice [1]; [10],significantly reduced
same,TNFα expression,Atp7b−/− mice [1]; [10],significantly reduced
same,iNOs expression,Atp7b−/− mice [1]; [10],significantly reduced
same,"expression of inflammatory genes (TNFα, IL-1β, iNOs)",Atp7b−/− mice [1]; heterozygote animals,no effect
same,"liver weight, treated vs untreated","[2]; KO (Atp7b−/−) mice, end of treatment",neither a difference
same,body weight,"[2]; drug-treated HET (Atp7b+/−) mice, p<0.05 vs untreated",26.43 ± 1.35 g
same,body weight,[2]; drug-treated KO (Atp7b−/−) mice,24.03 ± 0.91 g
same,hepatic copper levels,Atp7b−/− mice [3],did not prevent copper accumulation
same,hepatic triglycerides,Atp7b−/− mice [4]; drug treated HET mice vs untreated HET,statistically significant increase
same,hepatic triglycerides,Atp7b−/− mice [4]; drug treated KO mice vs untreated KO,statistically significant increase
same,changes in hepatic oxysterol levels,Atp7b−/− mice [5],did not reverse
same,serum ALT (mean),Atp7b−/− mice [6],285±115 U/L
same,serum AST (mean),Atp7b−/− mice [6],222±64 U/L
same,serum albumin,Atp7b−/− mice [6],2.93 ± 0.19 g/dL
same,serum total bilirubin,Atp7b−/− mice [6],0.85 ± 0.22 mg/dL
same,SREBP1 mRNA,[7]; ATP7b+/− mice,increased
same,SREBP1 mRNA,[7]; ATP7b−/− mice,no change
same,FASN mRNA expression,[7]; Atp7b+/− mice,significantly increased
same,FASN mRNA expression,[7]; Atp7b−/− mice,significantly increased
same,ABC1 mRNA levels,[7]; both KO and HET mice,did not change
same,CYP7A1 mRNA levels,[7]; both KO and HET mice,did not change
same,HMGCS1 mRNA levels,[7]; both KO and HET mice,did not change
same,NR1H2 mRNA levels,[7]; both KO and HET mice,did not change
same,NR1H3 mRNA levels,[7]; both KO and HET mice,did not change
same,NR1H4 mRNA levels,[7]; both KO and HET mice,did not change
same,effect on liver histology,Atp7b−/− mice [8]; heterozygote mice,no effect
same,treated mice in which pathologic liver histology features disappeared,"Atp7b−/− mice [8]; treated KO mice, light microscopy",5/7
same,serum low density lipoprotein (LDL),Atp7b−/− mice [9]; p<0.001,significantly increased; also recorded: more than doubled
same,serum total cholesterol,Atp7b−/− mice [9]; p<0.001,significantly increased; also recorded: more than doubled
same,serum high density lipoprotein (HDL),Atp7b−/− mice [9]; p<0.005,significantly increased; also recorded: more than doubled
